The source of these data is patent US9382572B2, “Methods of determining biocide efficacy or mechanism of action using flow cytometry” (Ecolab USA Inc., priority 2013, dated 2016).

Assay [1] has as its system E. coli growth in LB media. The experiment in a line: Synergy between DDAC and TTPC by flow cytometry, Example 3. The conditions noted are these: 40 ppm of biocide, ratio DDAC:TTPC. In general terms: Flow cytometry measures light scatter and fluorescence of single cells or particles in a stream.
For a further assay, the system named is E. coli in LB media. The experiment in a line: Effect of citric acid treatment on flow cytometry viable bacteria, Examples 8-9. It counts as cell-based, Escherichia coli. Conditions: concentration less than or equal to 20 mM.
For assay [2], the system named is Cultures of E. coli. The experiment in a line: Viability measured by flow cytometry, Example 6. Conditions: Escherichia coli, 4 hours at 37° C., n=3, ± 1 standard deviation, read-out: reduced viable bacteria (flow cytometry). It counts as cell-based. As for the experimental part:
(§1) Cultures of E. coli were left untreated or treated with tributyltetradecyl phosphonium chloride (TTPC) at 75 ppm, 150 ppm, or 300 ppm. Flow cytometry samples were prepared as described in Example 1 and triplicate culture bottles were prepared of the treated E. coli and untreated E. coli after 4 hours of incubation at 37° C. […] Viability was measured by flow cytometry and serial dilution in LB media. […] Error bars indicate 1 standard deviation. An asterisk indicates a statistically significant difference (p<0.05) and two asterisk indicates a p-value <0.01.

Assay [3] concerns Cultures of E. coli. Put plainly: Viability by standard culture method (serial dilution in LB media), Example 6. It counts as cell-based. The conditions noted are these: Escherichia coli, 4 hours at 37° C., n=3, ± 1 standard deviation, read-out: reduced viable bacteria (serial dilution culturing). As for the experimental part: as §1

`CCCCCCCCCC[N+](C)(C)CCCCCCCCCC.[Cl-]` [10:0, didecyldimethylammonium chloride]: in assay [1], the “Depolarized and Membrane-damaged/mL” value is 555000 mL⁻¹; the Depolarized/mL was found to be 1.45e+06 mL⁻¹; the Membrane-damaged/mL is 349 mL⁻¹; the Viable/mL is 5390 mL⁻¹.
In the case of `O=C(O)CC(O)(CC(=O)O)C(=O)O` [citric acid], in the assay with E. coli in LB media, the “effect on cell viability when analyzed by flow cytometry” value is “does not affect the cell viability”.
`CCCCCCCCCCCCCC[P+](CCCC)(CCCC)CCCC.[Cl-]` [TTPC, tributyl tetradecyl phosphonium chloride]: in the assay on Cultures of E. coli [2] (75 ppm), the inhibition at 75 ppm was determined as 97.9%. In the assay on Cultures of E. coli [2] (150 ppm), the inhibition at 150 ppm is 99.7%. In addition, in the assay on Cultures of E. coli [2] (300 ppm), the inhibition at 300 ppm came to 100%. The inhibition at 75 ppm in the assay with Cultures of E. coli [3] (75 ppm) came out at 99%. The inhibition at 150 ppm in the assay with Cultures of E. coli [3] (150 ppm) was 100%. In addition, the inhibition at 300 ppm in the assay on Cultures of E. coli [3] (300 ppm) came out at 100%. Also, in assay [1], the “Depolarized and Membrane-damaged/mL” value was 1.67e+06 mL⁻¹; the Depolarized/mL was 2.54e+06 mL⁻¹; the Membrane-damaged/mL was found to be 537 mL⁻¹; the Viable/mL was 6330 mL⁻¹.
